Measured values as given in patent US9144238B2, “Active compound combinations” (BAYER INTELLECTUAL PROPERTY GMBH, priority 2011, dated 2015).
Read-outs that look alike come from different tables or passages of the source.

What was measured:
Venturia inaequalis = experiment: Venturia test (apples)/preventive; assay type: in vivo; settings: Venturia inaequalis, 240 h, read-out: Efficacy in % found; for pest or weed control at 25 ppm: Table 10, 25 ppm a.i.; for pest or weed control at 50 ppm: Table 11, 50 ppm a.i.
Procedure: (§1) To produce a suitable preparation of active compound, 1 part by weight of active compound is mixed with the stated amounts of solvent and emulsifier, and the concentrate is diluted with water to the desired concentration.
To test for preventive activity, young plants are sprayed with the preparation of active compound at the stated rate of application. After the spray coating has dried on, the plants are inoculated with an aqueous conidia suspension of the causal agent of apple scab (Venturia inaequalis) and then remain for 1 day in an incubation cabinet at approximately 20° C. and a relative atmospheric humidity of 100%.
The plants are then placed in a greenhouse at approximately 21° C. and a relative atmospheric humidity of approximately 90%.
(§2) The test is evaluated 10 days after the inoculation. 0% means an efficacy which corresponds to that of the untreated control, while an efficacy of 100% means that no disease is observed.

Sphaerotheca fuliginea = experiment: Sphaerotheca test (cucumbers)/preventive; assay type: in vivo
Procedure: as §1
To test for preventive activity, young plants are sprayed with the preparation of active compound at the stated rate of application. After the spray coating has dried on, the plants are inoculated with an aqueous spore suspension of Sphaerotheca fuliginea. The plants are then placed in a greenhouse at approximately 23° C. and a relative atmospheric humidity of approximately 70%.
The test is evaluated 7 days after the inoculation. 0% means an efficacy which corresponds to that of the untreated control, while an efficacy of 100% means that no disease is observed.
as §2

Botrytis cinerea = experiment: Botrytis test (beans)/preventive; assay type: in vivo
Procedure: as §1
To test for preventive activity, young plants are sprayed with the preparation of active compound. After the spray coating has dried on, 2 small pieces of agar covered with growth of Botrytis cinerea are placed on each leaf. The inoculated plants are placed in a darkened chamber at 20° C. and a relative atmospheric humidity of 100%.
2 days after the inoculation, the size of the lesions on the leaves is evaluated. 0% means an efficacy which corresponds to that of the untreated control, while an efficacy of 100% means that no disease is observed.
as §2

Phytophthora infestans = experiment: whole plant or invertebrate; assay type: in vivo; settings: Phytophthora infestans, 72 h, tomatoes; for pest or weed control at 10 ppm: 10 ppm a.i.; for pest or weed control at 0.01 ppm: 0.01 ppm a.i.; for pest or weed control at 0.0025 ppm: 0.0025 ppm a.i.; for pest or weed control at 0.005 ppm: 0.005 ppm a.i.
Alternaria solani = experiment: whole plant or invertebrate; assay type: in vivo; settings: for Efficacy in % found: in vivo
[1] = pH 2.3
Procedure: (§3) Measurement of log P values was performed according EEC directive 79/831 Annex V.A8 by HPLC (High Performance Liquid
(§4) Chromatography) on reversed phase columns with the following methods:
(§5) ^[a]Measurement was done at pH 2.3 with 0.1% phosphoric acid and acetonitrile as eluent.

[2] = read-out: Efficacy in % found, Table 2
[3] = Alternaria solani, 72 h, read-out: Efficacy in % found
[4] = read-out: Efficacy in % found, Table 3
[5] = read-out: Efficacy in % found, Table 1
[6] = read-out: Efficacy in % found, Table 4
[7] = read-out: Efficacy in % found, Table 5

Procedure for physchem: as §3, §4, §5

O=C(Nc1ccccc1-c1ccc(Cl)cc1)c1cccnc1Cl [2.2, boscalid]
pest or weed control at 12.5 ppm (Venturia inaequalis; Table 10, 12.5 ppm a.i.): 66%
Efficacy in % found (Sphaerotheca fuliginea; Table 13, 25 ppm a.i.): 67%

O=C1c2ccccc2C(=O)N1SC(Cl)(Cl)Cl [5.16, folpet]
Efficacy in % found (Botrytis cinerea; Table 12, 10 ppm a.i.): 31%
pest or weed control at 5 ppm (Phytophthora infestans; read-out: Efficacy in % found, Table 2, 5 ppm a.i.): 3%
pest or weed control at 10 ppm (Phytophthora infestans; [2]): 3%
pest or weed control at 5 ppm (Alternaria solani; [3]): 21%
pest or weed control at 10 ppm (Venturia inaequalis; Table 11, 10 ppm a.i.): 43%

Cc1cc(C)nc(Nc2ccccc2)n1 [7.7, pyrimethanil]
Efficacy in % found (Botrytis cinerea; Table 12, 10 ppm a.i.): 15%
pest or weed control at 10 ppm (Phytophthora infestans; [4]): 10%
pest or weed control at 20 ppm (Alternaria solani; [3]): 4%

C#CCOc1ccccc1C1CC(c2csc(C3CCN(C(=O)Cn4nc(C(F)F)cc4C(F)F)CC3)n2)=NO1 (stereo not shown) [(I-1), 2-[3,5-bis(difluoromethyl)-1H-pyrazol-1-yl]-1-[4-(4-{5-[2-(prop-2-yn-1-yloxy)phenyl]-4,5-dihydro-1,2-oxazol-3-yl}-1,3-thiazol-2-yl)piperidin-1-yl]ethanone]
Efficacy in % found (Botrytis cinerea; Table 12, 25 ppm a.i.): 15%
Efficacy in % found (Botrytis cinerea; Table 12, 50 ppm a.i.): 15%
pest or weed control at 0.01 ppm (Phytophthora infestans; [5]): 0%
pest or weed control at 0.0025 ppm (Phytophthora infestans; [2]): 52%
pest or weed control at 0.01 ppm (Phytophthora infestans; [2]): 42%
pest or weed control at 0.01 ppm (Phytophthora infestans; [4]): 29%
pest or weed control at 0.01 ppm (Phytophthora infestans; [6]): 15%
pest or weed control at 0.0025 ppm (Phytophthora infestans; [7]): 64%
pest or weed control at 50 ppm (Alternaria solani; [3]): 21%
pest or weed control at 100 ppm (Alternaria solani; [3]): 0%
pest or weed control at 25 ppm (Venturia inaequalis): 0%
pest or weed control at 100 ppm (Venturia inaequalis; Table 10, 100 ppm a.i.): 8%
pest or weed control at 50 ppm (Venturia inaequalis): 0%
pest or weed control at 100 ppm (Venturia inaequalis; Table 11, 100 ppm a.i.): 0%
chromatographic logP (physchem; pH 2.7): 3.24
chromatographic logP (physchem; pH 7.8): 3.34
Efficacy in % found (Sphaerotheca fuliginea; Table 13, 50 ppm a.i.): 0%

C#CCOc1cccc(F)c1C1CC(c2csc(C3CCN(C(=O)Cn4nc(C(F)F)cc4C(F)F)CC3)n2)=NO1 (stereo not shown) [(I-5), 2-[3,5-bis(difluoromethyl)-1H-pyrazol-1-yl]-1-[4-(4-{5-[2-fluoro-6-(prop-2-yn-1-yloxy)phenyl]-4,5-dihydro-1,2-oxazol-3-yl}-1,3-thiazol-2-yl)piperidin-1-yl]ethanone]
Efficacy in % found (Botrytis cinerea; Table 12, 25 ppm a.i.): 10%
Efficacy in % found (Botrytis cinerea; Table 12, 100 ppm a.i.): 38%
pest or weed control at 0.01 ppm (Phytophthora infestans; [5]): 62%
pest or weed control at 0.005 ppm (Phytophthora infestans; [2]): 43%
pest or weed control at 50 ppm (Alternaria solani; [3]): 15%
Efficacy in % found (Alternaria solani): 29%
pest or weed control at 50 ppm (Venturia inaequalis): 0%
pest or weed control at 100 ppm (Venturia inaequalis; Table 11, 100 ppm a.i.): 0%
chromatographic logP (physchem; pH 2.7): 3.15
chromatographic logP (physchem; pH 7.8): 3.18

C#CCOc1cccc(Cl)c1C1CC(c2csc(C3CCN(C(=O)Cn4nc(C(F)F)cc4C(F)F)CC3)n2)=NO1 (stereo not shown) [(I-6), 2-[3,5-bis(difluoromethyl)-1H-pyrazol-1-yl]-1-[4-(4-{5-[2-chloro-6-(prop-2-yn-1-yloxy)phenyl]-4,5-dihydro-1,2-oxazol-3-yl}-1,3-thiazol-2-yl)piperidin-1-yl]ethanone]
chromatographic logP [1]: 3.51
pest or weed control at 0.005 ppm (Phytophthora infestans; [6]): 35%
pest or weed control at 0.0025 ppm (Phytophthora infestans; [7]): 73%
pest or weed control at 25 ppm (Alternaria solani; [3]): 30%
pest or weed control at 50 ppm (Alternaria solani; [3]): 35%
pest or weed control at 100 ppm (Alternaria solani; [3]): 41%
Efficacy in % found (Alternaria solani): 29%
pest or weed control at 25 ppm (Venturia inaequalis): 0%
pest or weed control at 100 ppm (Venturia inaequalis; Table 10, 100 ppm a.i.): 4%
pest or weed control at 50 ppm (Venturia inaequalis): 13%
pest or weed control at 100 ppm (Venturia inaequalis; Table 11, 100 ppm a.i.): 38%
chromatographic logP (physchem; pH 2.7): 3.4
Efficacy in % found (Sphaerotheca fuliginea; Table 13, 50 ppm a.i.): 0%

mancozeb [5.23]
Efficacy in % found (Botrytis cinerea; Table 12, 5 ppm a.i.): 0%
Efficacy in % found (Alternaria solani): 0%
